Data: patent US20230072860A1, “ISOXAZOLINE OXIME FORMATE COMPOUND, PREPARATION METHOD THEREFOR, HERBICIDAL COMPOSITION AND USE THEREOF” (QINGDAO KINGAGROOT CHEMICAL COMPOUND CO., LTD., priority 2020, published 2023)

Assays:
Experiment in all cases: Experiment on weeding effect in post-emergence stage
Format in all cases: in vivo
Settings in all cases: dose 15 g a.i./ha, fresh weight control rate level
Eleusine indica = tested on: Eleusine indica
Method in brief: (§1)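 Herbicidal activity is judged on potted plants that receive a post-emergence spray at 500 to 15 g a.i./ha, with methyl oleate added as synergist. Effects are counted three weeks later in the greenhouse.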

Echinochloa crusgalli = tested on: Echinochloa crusgalli
Method in brief: as §1

Leptochloa chinensis = tested on: Leptochloa chinensis
Method in brief: as §1

Setaria viridis = tested on: Setaria viridis
Method in brief: as §1

Amaranthus retroflexus = tested on: Amaranthus retroflexus
Method in brief: as §1

Abutilon theophrasti = tested on: Abutilon theophrasti
Method in brief: as §1

Galium aparine = tested on: Galium aparine
Method in brief: as §1

Digitaria sanguinalis = tested on: Digitaria sanguinalis
Method in brief: as §1

Veronica didyma Tenore = tested on: Veronica didyma Tenore
Method in brief: as §1

Compound	weeding effect in post-emergence stage, Eleusine indica (level) (Eleusine indica)	weeding effect in post-emergence stage, Echinochloa crusgalli (level) (Echinochloa crusgalli)	weeding effect in post-emergence stage, Leptochloa chinensis (level) (Leptochloa chinensis)	weeding effect in post-emergence stage, Setaria viridis (level) (Setaria viridis)	weeding effect in post-emergence stage, Amaranthus retroflexus (level) (Amaranthus retroflexus)	weeding effect in post-emergence stage, Abutilon theophrasti (level) (Abutilon theophrasti)	weeding effect in post-emergence stage, Galium aparine (level) (Galium aparine)	weeding effect in post-emergence stage, Digitaria sanguinalis (level) (Digitaria sanguinalis)	weeding effect in post-emergence stage, Veronica didyma Tenore (level) (Veronica didyma Tenore)
Cn1c(=S)n(C)c(=S)n(-c2cc(C3=NOC(C)(C(=O)ON=C(c4ccccc4)c4ccccc4)C3)c(Cl)cc2F)c1=O (stereo not drawn) [Compound 71]	5 (Level 5: growth control rate is above 85%)	5 (Level 5: growth control rate is above 85%)	5 (Level 5: growth control rate is above 85%)	5 (Level 5: growth control rate is above 85%)	5 (Level 5: growth control rate is above 85%)	5 (Level 5: growth control rate is above 85%)	5 (Level 5: growth control rate is above 85%)	5 (Level 5: growth control rate is above 85%)	5 (Level 5: growth control rate is above 85%)
Cn1c(=S)n(C)c(=S)n(-c2cc(C3=NOC(C)(C(=O)ON=C4CCCC4)C3)c(Cl)cc2F)c1=O (stereo not drawn) [Compound 74]	5 (Level 5: growth control rate is above 85%)	5 (Level 5: growth control rate is above 85%)	5 (Level 5: growth control rate is above 85%)	5 (Level 5: growth control rate is above 85%)	5 (Level 5: growth control rate is above 85%)	5 (Level 5: growth control rate is above 85%)	5 (Level 5: growth control rate is above 85%)	5 (Level 5: growth control rate is above 85%)	5 (Level 5: growth control rate is above 85%)
CCOC(=O)C(C)=NOC(=O)C1(C)CC(c2cc(-n3c(=O)n(C)c(=S)n(C)c3=S)c(F)cc2Cl)=NO1 (stereo not drawn) [Compound 75]	5 (Level 5: growth control rate is above 85%)	5 (Level 5: growth control rate is above 85%)	5 (Level 5: growth control rate is above 85%)	5 (Level 5: growth control rate is above 85%)	5 (Level 5: growth control rate is above 85%)	5 (Level 5: growth control rate is above 85%)	5 (Level 5: growth control rate is above 85%)	5 (Level 5: growth control rate is above 85%)	5 (Level 5: growth control rate is above 85%)
CCOC(=O)C(C)=NOC(=O)C1(C)CC(c2cc(-n3c(=O)n(C)c(=S)n(C)c3=O)c(F)cc2Cl)=NO1 (stereo not drawn) [Compound 123]	5 (Level 5: growth control rate is above 85%)	5 (Level 5: growth control rate is above 85%)	5 (Level 5: growth control rate is above 85%)	5 (Level 5: growth control rate is above 85%)	5 (Level 5: growth control rate is above 85%)	5 (Level 5: growth control rate is above 85%)	5 (Level 5: growth control rate is above 85%)	5 (Level 5: growth control rate is above 85%)	5 (Level 5: growth control rate is above 85%)
C/C(=N/OC(=O)C1(C)CC(c2cc(-n3c(=O)n(C)c(=S)n(C)c3=O)c(F)cc2Cl)=NO1)c1ccccc1 (stereo not drawn) [Compound 124]	5 (Level 5: growth control rate is above 85%)	5 (Level 5: growth control rate is above 85%)	5 (Level 5: growth control rate is above 85%)	5 (Level 5: growth control rate is above 85%)	5 (Level 5: growth control rate is above 85%)	5 (Level 5: growth control rate is above 85%)	5 (Level 5: growth control rate is above 85%)	5 (Level 5: growth control rate is above 85%)	5 (Level 5: growth control rate is above 85%)
Cn1c(=S)n(C)c(=O)n(-c2cc(C3=NOC(C)(C(=O)ON=C(c4ccccc4)c4ccccc4)C3)c(Cl)cc2F)c1=O (stereo not drawn) [Compound 140]	5 (Level 5: growth control rate is above 85%)	5 (Level 5: growth control rate is above 85%)	5 (Level 5: growth control rate is above 85%)	5 (Level 5: growth control rate is above 85%)	5 (Level 5: growth control rate is above 85%)	5 (Level 5: growth control rate is above 85%)	5 (Level 5: growth control rate is above 85%)	5 (Level 5: growth control rate is above 85%)	5 (Level 5: growth control rate is above 85%)
Cn1c(=S)n(C)c(=O)n(-c2cc(C3=NOC(C)(C(=O)ON=C4CCCC4)C3)c(Cl)cc2F)c1=O (stereo not drawn) [Compound 146]	5 (Level 5: growth control rate is above 85%)	5 (Level 5: growth control rate is above 85%)	5 (Level 5: growth control rate is above 85%)	5 (Level 5: growth control rate is above 85%)	5 (Level 5: growth control rate is above 85%)	5 (Level 5: growth control rate is above 85%)	5 (Level 5: growth control rate is above 85%)	5 (Level 5: growth control rate is above 85%)	5 (Level 5: growth control rate is above 85%)
CC(C)=NOC(=O)C1(C)CC(c2cc(-n3c(=O)cc(C(F)(F)F)n(C)c3=O)c(F)cc2Cl)=NO1 (stereo not drawn) [Compound 160]	5 (Level 5: growth control rate is above 85%)	5 (Level 5: growth control rate is above 85%)	5 (Level 5: growth control rate is above 85%)	5 (Level 5: growth control rate is above 85%)	5 (Level 5: growth control rate is above 85%)	5 (Level 5: growth control rate is above 85%)	5 (Level 5: growth control rate is above 85%)	5 (Level 5: growth control rate is above 85%)	5 (Level 5: growth control rate is above 85%)
CC(C)=NOC(=O)C1(C)CC(c2nc(-n3c(=O)cc(C(F)(F)F)n(C)c3=O)c(F)cc2Cl)=NO1 (stereo not drawn) [Compound 170]	5 (Level 5: growth control rate is above 85%)	5 (Level 5: growth control rate is above 85%)	5 (Level 5: growth control rate is above 85%)	5 (Level 5: growth control rate is above 85%)	5 (Level 5: growth control rate is above 85%)	5 (Level 5: growth control rate is above 85%)	5 (Level 5: growth control rate is above 85%)	5 (Level 5: growth control rate is above 85%)	5 (Level 5: growth control rate is above 85%)
CC(C)=NOC(=O)C1(C)CC(c2cc(-n3c(=S)cc(C(F)(F)F)n(C)c3=O)c(F)cc2Cl)=NO1 (stereo not drawn) [Compound 197]	5 (Level 5: growth control rate is above 85%)	5 (Level 5: growth control rate is above 85%)	5 (Level 5: growth control rate is above 85%)	5 (Level 5: growth control rate is above 85%)	5 (Level 5: growth control rate is above 85%)	5 (Level 5: growth control rate is above 85%)	5 (Level 5: growth control rate is above 85%)	5 (Level 5: growth control rate is above 85%)	5 (Level 5: growth control rate is above 85%)
